{"source": "patent US20260115267A1", "about": "“METHODS OF USING ANTI-EGF ANTIBODIES TO AUGMENT THE ACTIVITY OF BRAF AND KRAS INHIBITORS” (In3Bio Ltd., priority 2021, published 2026)", "key": {"HT29 cells": {"tested_on": "HT29 cells", "assay": "Emergence of resistance to encorafenib in HT29 cells (FIGS. 5-8)", "type": "cell-based", "method": "FIGS. 5A-B are graphs that show the emergence of resistance to Encorafenib in the HT29 cell line across an incubation time of 3 weeks and measured by the percentage of cell viability. Cells were treated with 5 μM Encorafenib (FIG. 5A) or 10 μM Encorafenib (FIG. 5B) and incubated with EGF at 0.0 ng/mL, 0.1 ng/mL, Ing/mL, and 10 ng/mL.\nFIGS. 6A-B are graphs that show the emergence of resistance to Encorafenib in the HT29 cell line across an incubation time of 15 weeks and measured by the percentage of cell viability.\nFIGS. 7A-B are graphs that show the emergence of resistance to Encorafenib in the HT29 cell line across an incubation time of 15 weeks and measured by the percentage of cell viability. […] All tests were conducted at 1.0 ng/ml EGF\nFIGS. 8A-B are graphs that show the emergence of resistance to 10 μM Encorafenib in the HT29 cell line with an incubation time of 90 days and measured by the percentage of tumor cell-free wells.\nThe effect of cells incubated with 5 μM encorafenib and treated with different concentrations of EGF were tested for cell viability during 3 weeks of incubation.\nNext, the effects on cells incubated with 0.1 ng/mL EGF were tested.\nThe effects on cells incubated with 1.0 ng/mL EGF were tested over 15 weeks. The same conditions were repeated as in FIGS. 6A-B with the only difference being the 10-fold increase in EGF (FIG. 7A).\nLastly, the effects of HT29 cells incubated with 0.1 ng/ml and 1.0 ng/mLEGF were tested over a course of 90 days (FIGS. 8A-B)."}, "[1]": {"tested_on": "pEGFR(Tyr1068), pPRAS40(Thr 246) in HT29 cells", "assay": "Western blot of total and phosphorylated EGFR and PRAS40 in HT29 cells with EGF, 2 hours (FIG. 4)", "type": "cell-based", "conditions": "cetuximab 1/75, encorafenib 0.05 μM", "description": "C in the first lane stands for control, non-treated cell line sample. The second lane is the same control cell receiving EGF.\nC in the first lane stands for control, non-treated cell line sample. Second lane is same control cell receiving EGF."}, "[2]": {"conditions": "clinical data, BRAF V600E mutation-positive advanced melanoma; cited from earlier work"}, "[3]": {"tested_on": "EGFR-mut NSCLC cell lines", "conditions": "cited from earlier work"}, "[4]": {"conditions": "10 μM versus 5 μM encorafenib, EGF 0.0-10 ng/mL, 3 weeks"}}}
{"compound": "COC(=O)N[C@@H](C)CNc1nccc(-c2cn(C(C)C)nc2-c2cc(Cl)cc(NS(C)(=O)=O)c2F)n1", "note": "[Encorafenib]", "values": [{"measurement": "growth of positive cells (emergence of resistance)", "setting": "HT29 cells; 0.1 ng/mL EGF, encorafenib 10 μM, 15 weeks", "value": "allows the growth of positive cells to a much greater extent"}, {"measurement": "positive growth (emergence of resistance)", "setting": "HT29 cells; 1.0 ng/mL EGF, 15 weeks", "value": "resistance"}, {"measurement": "proliferation / percentage of viable cells (positive wells)", "setting": "HT29 cells; [4]", "value": "substantially lower"}, {"measurement": "time point at which resistance began", "setting": "HT29 cells; [4]", "value": "earlier time point"}, {"measurement": "proliferation / percentage of viable cells (positive wells)", "setting": "HT29 cells; 10 μM versus 5 μM encorafenib, EGF 0.0-10 ng/mL, 3 weeks, listed as encorafenib", "value": "lower proliferation of cells than with 5 μM encorafenib, but not by much"}, {"measurement": "inhibition of pPRASO", "setting": "[1]", "value": "did not inhibit"}]}
{"compound": "CC(C)(C)c1nc(-c2cccc(NS(=O)(=O)c3c(F)cccc3F)c2F)c(-c2ccnc(N)n2)s1", "note": "[dabrafenib, Dabrafenib]", "values": [{"measurement": "time to occurrence of resistance", "setting": "[2]", "value": "within six to seven months"}]}
{"compound": "C=CC(=O)Nc1cc(Nc2nccc(-c3cn(C)c4ccccc34)n2)c(OC)cc1N(C)CCN(C)C", "note": "[osimertinib]", "values": [{"measurement": "antiproliferative effects of the TKI when EGF is present", "setting": "[3]", "value": "significantly reduced"}]}
